Data set [1] is described as follows: Intrinsic dissolution rate, rotating disk apparatus. The class given is physicochemical. The method, then: Intrinsic dissolution rate experiments were conducted using a rotating disk apparatus. Disks of drug substance were prepared by directly compressing 100 mg of powder of polymorph Form 3 in a die at a pressure of 2500 psi for 2 minutes using a hydraulic press (Carver Press, Fred Carver, NJ, USA). The exposed surface area for the resulting disk was 0.5 cm^2. A regular USP dissolution apparatus maintained at 37±0.5° C. was used for the dissolution study. Each dissolution vessel contained 500 mL of aqueous dissolution medium of 0.05 N HCl or pH 6.8 20 mM phosphate buffer with 1% cetyltrimetrylammonium bromide (CTAB). The disk holder (die) was half-immersed into the dissolution medium and rotated at 100 rpm. Samples were withdrawn at specified time intervals and analyzed by HPLC.
The dissolution rate (J) of solid per unit surface area may be described by a diffusion model:
Where D is the diffusion coefficient of the solute, h is the diffusion layer thickness during dissolution at the surface of solid, Cs is the saturation solubility of the solid in the dissolution medium, and Cb is its concentration in the bulk medium. Under sink condition (Cs>>Cb) Equation 2 is reduced to: […]
where dissolution rate is directly proportional to the saturated solubility.

A short description of data set [2]: Hygroscopicity by dynamic vapor sorption (Q5000SA), Example 6A. The class given is physicochemical. The following applies: for hygroscopicity: 0 to 90% RH. The method, then: Hygroscopicity of polymorph Form 3 and polymorph Form 7 at 25° C. was determined by dynamic vapor sorption (DVS) using an automated vapor sorption balance (Q5000SA; TA instruments, New Castle, Del.). Hygroscopicity was studied as a function of relative humidity (RH) over the range of 0 to 90%. Approximately 10 mg of solid sample was placed directly onto the 13 mm quartz DVS sample cup and equilibrated at 0% relative humidity (RH) until a constant weight was achieved. After equilibration, the RH was increased in increments of 10% to reach 90%, and the water sorption was monitored. For desorption, the relative humidity was deceased in a similar manner to accomplish a full sorption/desorption cycle.
For all experiments, the instrument was operated in dm/dt mode (mass variation over time) to determine when equilibrium was reached. A fixed dm/dt value of 0.0010% min^−1 was selected for all RH segments. A maximum stage of 360 minutes and a minimum stage of 60 minutes were selected for these experiments.

The nature of data set [3]: Moisture sorption isotherms (Hiden IGASorp / SMS DVS Intrinsic), Example 6B. The class given is physicochemical. The conditions noted are these: for water uptake up to 90% RH / hygroscopicity: 25° C.; for hygroscopicity: sorption isotherm, 0-90% RH. The method, then:
Sorption isotherms were obtained using a Hiden IGASorp moisture sorption analyser, controlled by CFRSorp software. The sample temperature was maintained at 25° C. by a Huber re-circulating water bath. The humidity was controlled by mixing streams of dry and wet nitrogen, with a total flow rate of 250 ml/min. The relative humidity (RH) was measured by a calibrated Vaisala RH probe (dynamic range of 0-95% RH), located near the sample. The weight change, (mass relaxation) of the sample as a function of % RH was constantly monitored by the microbalance (accuracy ±0.001 mg).
10-20 mg of sample was placed in a tared mesh stainless steel basket under ambient conditions. The sample was loaded and unloaded at 40% RH and 25° C. (typical room conditions).
A moisture sorption isotherm was performed as outlined in Table 1 below (2 scans giving 1 complete cycle). The standard isotherm was performed at 25° C. at 10% RH intervals over a 0-90% RH range.
The software uses a least squares minimization procedure together with a model of the mass relaxation, to predict an asymptotic value. The measured mass relaxation value must be within 5% of that predicted by the software, before the next % RH value is selected. The minimum equilibration time was set to 1 hour and the maximum to 4 hours. Data analysis was carried out using IGASorp Systems Software v 6.50.55. The sample was recovered after completion of the isotherm and re-analyzed by XRPD.
In other cases, sorption isotherms were also obtained using a SMS DVS Intrinsic moisture sorption analyser, controlled by DVS Intrinsic Control software v1.0.1.2 (or v 1.0.1.3). The sample temperature was maintained at 25° C. by the instrument controls. The humidity was controlled by mixing streams of dry and wet nitrogen, with a total flow rate of 200 ml/min. The relative humidity was measured by a calibrated Rotronic probe (dynamic range of 1.0-100% RH), located near the sample. The weight change, (mass relaxation) of the sample as a function of % RH was constantly monitored by the microbalance (accuracy ±0.005 mg).
5-20 mg of sample was placed in a tared mesh stainless steel basket under ambient conditions. The sample was loaded and unloaded at 40% RH and 25° C. (typical room conditions). A moisture sorption isotherm was performed as outlined in Table 2 below (2 scans giving 1 complete cycle). The standard isotherm was performed at 25° C. at 10% RH intervals over a 0-90% RH range. Data analysis was carried out using Microsoft Excel using DVS Analysis Suite v6.2 (or 6.1 or 6.0). The sample was recovered after completion of the isotherm and re-analyzed by XRPD.

Data set [4] can be described thus: Solubility in water.
Data set [5] is described as follows: PK study in pentagastrin- or famotidine-pretreated dogs, oral tablets. The following applies: famotidine-pretreated dogs, tablet.
Experimental: Pentagastrin pretreatment (6 μg/kg intramuscular injection 30 minutes prior to test formulation dosing) in fasted dogs was used to simulate fasting gastric pH in humans. Famotidine pretreatment (20 mg orally 1 hour prior to test formulation dosing) in fasted dogs was used to simulate human gastric pH when acid suppressant was co-dosed with test formulation. The tablets of the mono-MSA salt or bis-MSA salt of a compound of Formula I (conventional tablet and spray dried formulation) were orally administered followed by a 30 mL water flush.
The mark [6] stands for this setting: DVS, 25° C., listed as Polymorph Form 3.
[7] abbreviates: DVS, 25° C., listed as Polymorph Form 7.

From patent US20160168155A1, “POLYMORPH OF SYK INHIBITORS” (GILEAD CONNECTICUT, INC., priority 2013, published 2016) come the findings set out here.

As to `c1cn2cc(-c3ccc4cn[nH]c4c3)nc(Nc3ccc(N4CCOCC4)cc3)c2n1` [polymorph Form 3], the “IDR higher than mono MSA” value in data set [1] (pH 6.8) stood at 400 fold. In addition, in data set [1] (pH 6.8, rotating disk, 37° C., 100 rpm), the “Intrinsic dissolution rate in pH 6.8 20 mM phosphate with 1% CTAB” value stood at 1.2 mg/min/cm^2. In addition, the hygroscopicity result was “not observed to be hygroscopic” in data set [2] (DVS, 25° C.); “not observed to be hygroscopic at 70% RH and below” in data set [2] (setting [6]); “not hygroscopic” in data set [3]; “not observed to be hygroscopic at 70% RH and below” in data set [3] (listed as Polymorph Form 3). For the same compound, the “water adsorption / weight gain at 90% RH” value in data set [2] (setting [6]) was around 28%. Moreover, in data set [2] (sample collected at end of DVS), the “solid form after DVS experiment (XRPD)” value is “converted to Form 7”. The “water uptake up to 90% RH” value in data set [3] (listed as Form 3) is on record as around 20 wt. %. In addition, the “solid form after DVS analysis (XRPD)” value in data set [3] (sample after DVS analysis) is recorded as “converted to Form 7”. This compound gave a Solubility in water in data set [4] above 100 mg/mL. For the same compound, the “final pH” value in data set [4] (final pH of the water solubility sample) is “(final pH < 1.5)”. For the same compound, in data set [5], the “increase of AUC0-24 compared to the mono-MSA salt formulation” value was “more than 10 fold”.

Turning to `c1cn2cc(-c3ccc4cn[nH]c4c3)nc(Nc3ccc(N4CCOCC4)cc3)c2n1` [polymorph Form 7], in data set [2] (setting [7]), the hygroscopicity entry is given as “highly hygroscopic” and the “water adsorption / weight gain at 90% RH” value is around 22%. Moreover, the “weight gain at 40% RH” value in data set [2] (DVS, 25° C., 40% RH) is on record as around 10%. In data set [3] (listed as Polymorph Form 7), the “water uptake up to 90% RH” value was around 21 wt. % and the hygroscopicity entry is on record as “highly hygroscopic”. Moreover, the “solid form below the stable RH interval” value in data set [3] (below 30% RH) is “becomes amorphous”. The “RH interval in which the form is stable” value in data set [3] (room temperature) is listed as 30-60 % RH.

Consider `c1cn2cc(-c3ccc4cn[nH]c4c3)nc(Nc3ccc(N4CCOCC4)cc3)c2n1` [Free Base, Compound of Formula I], for which the “Intrinsic dissolution rate in pH 1.3 0.05N HCl with 0.9% NaCl” value in data set [1] (pH 1.3, rotating disk, 37° C., 100 rpm) was found to be 0.00046 mg/min/cm^2. Further, the “Intrinsic dissolution rate in pH 6.8 20 mM phosphate with 1% CTAB” value in data set [1] (pH 6.8, rotating disk, 37° C., 100 rpm, listed as free base of Formula I) is “no free base was detectable”. The same compound showed a Solubility in water in data set [4] below 0.00005 mg/mL.
